According to patent US20170165286A1, “COMPOSITIONS AND METHODS FOR TREATING DIABETES AND LIVER DISEASES” (Cempra Pharmaceuticals, Inc., priority 2014, published 2017):

System: STAM mice
Experiment: NASH-HCC (STAM) model: body weight, liver weight, macroscopic liver appearance
Assay type: in vivo
Settings: for Liver Weight / Liver-to-body Weight Ratio: 5-9 wks
Description: NASH-HCC (STAM™) Model. C57BL/6 (15-day-pregnant female) mice are obtained from Charles River Laboratories Japan (Kanagawa, Japan). Male pups are selected for the study. NASH is induced in male mice by a single subcutaneous injection of 200 μg streptozotocin (STZ, Sigma-Aldrich, USA) solution 2 days after birth, followed by feeding a HFD (57 kcal % fat, cat#: HFD32, CLEA Japan, Japan) beginning at 4 weeks of age. At 5 weeks of age, mice are divided into a control group and one or more treated group (generally 8 mice per group). Animals are sacrificed at 9 weeks of age, and biochemical, histological, and gene expression analyses are performed.
All animals used in the study are housed and cared for in accordance with local regulations. Test animals are maintained in an SPF facility under controlled conditions of temperature (23±2° C.), humidity (45±10%), lighting (12-hour artificial light and dark cycles; light from 8:00 to 20:00) and air exchange. A high pressure (20±4 Pa) is maintained in the experimental room. Test animals are housed in polycarbonate cages KN-600 (Natsume Seisakusho, Japan) with a maximum of 4 mice per cage. Sterilized PULMASμ (Material Research Center, Japan) are used for bedding and replaced once a week. Sterilized solid HFD is provided ad libitum, being placed in the metal lid on top of the cage. Pure water is provided ad libitum from a water bottle equipped with a rubber stopper and a sipper tube. Water bottles are replaced once a week, cleaned and sterilized in autoclave and reused.
Generally, elevated NAFLD activity score (NAS)≧5, steatosis, and elevated ALT is evident by week 6, NASH is evident by week 7, perisinusoidal fibrosis is evident by week 9, nodules are evident by week 12, and HCC is evident by week 16. It is to be understood herein that perisinusoidal fibrosis in mice is the model for NASH in humans (Fujii et al., Med Mol Morphol 46: 141-152 (2013)).
During weeks 5-9 (starting at day 35±2), test compound is administered (generally orally) at various doses diluted to 10 mL/kg and according to various dosing protocols to treatment groups (8 mice each) while a second group (8 mice) is administered vehicle only. Animals are sacrificed at 9 weeks.
Illustrative dose response test groups. Group 1-Normal. Eight normal mice are fed with a normal diet ad libitum without any treatment until 9 weeks of age. Group 2-Vehicle. Eight NASH mice are orally administered vehicle (0.5% w/v methylcellulose+0.2% Tween®80) in a volume of 10 mL/kg twice daily from 5 to 9 week of age. Group 3-solithromycin 5 mg/kg. Eight NASH mice are orally administered vehicle supplemented with solithromycin at a dose of 5 mg/kg in the morning and the vehicle in the evening (5 mg/kg/day) from 5 to 9 weeks of age. Group 4-solithromycin 10 mg/kg. Eight NASH mice are orally administered vehicle supplemented with solithromycin at a dose of 10 mg/kg twice daily (20 mg/kg/day) from 5 to 9 weeks of age. Group 5-solithromycin 25 mg/kg. Eight NASH mice are orally administered vehicle supplemented with solithromycin at a dose of 25 mg/kg twice daily (50 mg/kg/day) from 5 to 9 weeks of age. Group 6-solithromycin 50 mg/kg. Eight NASH mice are orally administered vehicle supplemented with solithromycin at a dose of 50 mg/kg once daily (50 mg/kg/day) from 5 to 9 weeks of age.

[1] = 5 mg/kg q.d. oral, listed as Solithromycin, 5 mg/kg
[2] = 10 mg/kg b.i.d. oral, listed as Solithromycin, 10 mg/kg
[3] = 25 mg/kg b.i.d. oral, listed as Solithromycin, 25 mg/kg

In the case of `CC[C@H]1OC(=O)[C@@](C)(F)C(=O)[C@H](C)[C@@H](O[C@@H]2O[C@H](C)C[C@H](N(C)C)[C@H]2O)[C@](C)(OC)C[C@@H](C)C(=O)[C@H](C)[C@H]2N(CCCCn3cc(-c4cccc(N)c4)nn3)C(=O)O[C@]12C` [solithromycin], the “Liver Weight” value (5 mg/kg q.d. oral, 5 mg/kg) was “no statistically significant difference”, the “Liver-to-body Weight Ratio” value (5 mg/kg q.d. oral, 5 mg/kg) was “no statistically significant differences” and the “Liver Weight” value [1] was 1335 ± 185 mg. For the same molecule, the “Liver-to-body Weight Ratio” value [1] was 7.0 ± 0.8%, the “Liver Weight” value (10 mg/kg b.i.d. oral, 10 mg/kg) was “significant reductions” and the “Liver-to-body Weight Ratio” value (10 mg/kg b.i.d. oral, 10 mg/kg) was “no statistically significant differences”. The “Liver Weight” value [2] was 1187 ± 134 mg, the “Liver-to-body Weight Ratio” value [2] was 6.7 ± 0.8% and the “Liver Weight” value (25 mg/kg b.i.d. oral, 25 mg/kg) was “significant reductions”. The “Liver-to-body Weight Ratio” value (25 mg/kg b.i.d. oral, 25 mg/kg) was “significant decrease”, the “Liver Weight” value [3] was 1087 ± 97 mg and the “Liver-to-body Weight Ratio” value [3] was 5.9 ± 0.7 %. For the same molecule, the “Liver Weight” value (50 mg/kg q.d. oral) was 1242 ± 141 mg, the “Liver-to-body Weight Ratio” value (50 mg/kg q.d. oral) was 6.0 ± 0.7 % and the “Mean body weight on the day of sacrifice compared to vehicle group” value (Group 4 (10 mg/kg b.i.d.)) was “significant decrease”. For the same molecule, the “Mean body weight on the day of sacrifice compared to vehicle group” value (Groups 3, 5, 6) was “no significant differences” and the “Macroscopic liver appearance (coloration)” value (as a function of increasing dose) was “substantially less yellow in color”.
